Test results reported in patent US10287267B2, “Isoquinolin-3-yl carboxamides and preparation and use thereof” (Samumed, LLC, priority 2016, dated 2019).

How the values were obtained:
[1] = test system: SW480 colon carcinoma cells; assay: Cell viability assay (CellTiter-Glo); type: cell-based, human; conditions: Homo sapiens; for EC50: 96 h, SW480 cells, CellTiter-Glo, four days incubation; for inhibition at 10 µM: SW480, read-out: percent inhibition at 10 μM
[2] = test system: Wnt pathway (Sp5-Luc reporter, TCF/LEF binding sites) in SW480 colon carcinoma cells; assay: Screening assay for Wnt activity: Sp5-Luc reporter gene assay; type: cell-based, human; conditions: Homo sapiens; for EC50: Sp5-Luc reporter, SW480 cells, 36 to 48 hours;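 on all read-outs here: firefly luciferase luminescence read in stably transduced SW480 cells carrying the Sp5 promoter reporter with eight TCF/LEF sites, compounds given in 0.1% DMSO final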
Description: The screening assay for Wnt activity is described as follows.
Following incubation, 15 μl of BriteLite Plus luminescence reagent (Perkin Elmer) was added to each well of the 384-well assay plates. The plates were placed on an orbital shaker for 2 min and then luminescence was quantified using the Envision (Perkin Elmer) plate reader.

[3] = target: recombinant DYRK1A kinase (Homo sapiens (Human), UniProt Q13627); assay: DYRK1A kinase assay (Ser/Thr 18 peptide Z-lyte FRET); type: biochemical; conditions: 30 μM ATP, 1 h room temperature;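 further: Read-out is the coumarin to fluorescein emission ratio, referenced to unphosphorylated (0%) and phosphorylated (100%) Ser/Thr 18 peptide controls, values from dose-response curves by non-linear regression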
IL-6 = IL-6 inhibition in LPS-stimulated human peripheral blood mononuclear cells (HTRF); type: cell-based; conditions: Homo sapiens, PBMC; for inhibition at 10 µM: read-out: percent value in parentheses beside EC50 >10 μM; for EC50: Table 9, huPBMCs, LPS 50 ng/mL, 22 hours, dose-response starting from 10 μM;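 on all read-outs here: IL-6 detected by HTRF with an XL665- and Cryptate-labelled anti-IL-6 antibody pair, samples run in duplicate, EC50 obtained from a four-parameter Levenberg-Marquardt curve fit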
Description: After 22 hour incubation, a mixture of anti-IL6 XL665 and anti-IL-6 Cryptate diluted in reconstitution buffer (Catalog #62IL6PEC, Cisbio Inc., Bedford, Mass.) was added to each well. […] All samples were processed in duplicate. […] EC50 was determined using software generated by Dotmatics Limited (Windhill Bishops Stortford Herts, UK) using the Levenberg-Marquardt 4 parameter fitting procedure with finite different gradients.

[4] = test system: α-smooth muscle actin (αSMA) positive LL29 cells; assay: Inhibition of fibrotic process: αSMA in TGF-β1 treated primary human fibroblasts from IPF patients; type: cell-based; conditions: Homo sapiens, Fibroblast; for EC50: 96 h, Table 8, LL29 fibroblasts from IPF patients, TGF-β1 20 ng/mL, 4 days, dose-response 10 μM to 0.94 nM; for inhibition at 10 µM: read-out: percent value in parentheses beside EC50 >10 μM;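 on all read-outs here: controls were TGF-β1 stimulated wells with DMSO vehicle (positive) and cells given DMSO alone (negative), cultured in F12 medium with 1% fetal bovine serum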
[5] = test system: Tau phosphorylation at Ser396 (pSer396); assay: Tau phosphorylation assay (pSer396 ELISA / western blot) in SH-SY5Y cells; type: cell-based, human; conditions: Homo sapiens; SH-SY5Y cells, overnight (16-18 h) exposure; read-out: pSer396 Tau EC50;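 further: EC50 for reduction of Tau pSer396 in lysed cells, measured by colorimetric ELISA or chemiluminescent western blot, both using the same pSer396 antibody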
Description: Two days before treatment, cells were seeded onto 96 well plates at 5×10^4 cells/well.
Wells were visually checked for cell death or change in morphology and supernatants were tested for cytotoxicity by measurement of lactate dehydrogenase release (LDH, CytoToxOne kit, Promega) if necessary.
Cells were lysed with RIPA buffer complemented with phosphatase and protease inhibitors then lysates were spun down at 12,000 g for 10 min to remove any cellular debris. Lysates are then either directly tested for pSer396 by ELISA (Life Technology, Kit KHB7031) or loaded on NuPage Bis-Tris gels for western blot analysis. Colorimetric detection of ELISA signal is performed by Cytation3 plate reader (Biotek) and the chemiluminescence signal for HRP-linked antibodies used in western blotting is detected using a Carestream Image Station. The same pSer396 antibody is used for detection of pTau in both assays.

recombinant GSK3β kinase = recombinant GSK3β kinase (Homo sapiens (Human), UniProt P49841); assay: GSK3β kinase assay (Ser/Thr 09 peptide Z-lyte FRET); type: biochemical; conditions: 46 μM ATP, 1 h room temperature;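 further: kinase activity read as coumarin to fluorescein emission ratio, 11-point threefold dilutions from 10 µM to 0.0003 µM in duplicate, unphosphorylated and phosphorylated peptide as 0% and 100% controls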
Chain of recombinant GSK3β kinase (P49841 whole entry): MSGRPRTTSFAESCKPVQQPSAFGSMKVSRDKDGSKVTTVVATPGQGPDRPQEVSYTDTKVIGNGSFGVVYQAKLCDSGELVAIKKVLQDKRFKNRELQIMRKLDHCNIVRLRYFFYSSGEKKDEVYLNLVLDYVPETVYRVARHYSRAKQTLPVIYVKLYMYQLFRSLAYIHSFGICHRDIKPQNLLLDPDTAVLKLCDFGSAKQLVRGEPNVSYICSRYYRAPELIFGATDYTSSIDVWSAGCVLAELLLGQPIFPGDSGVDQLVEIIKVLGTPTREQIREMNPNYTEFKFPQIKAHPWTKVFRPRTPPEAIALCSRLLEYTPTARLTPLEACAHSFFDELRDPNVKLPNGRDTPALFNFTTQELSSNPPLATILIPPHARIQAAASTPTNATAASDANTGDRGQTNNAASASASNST

| Structure (SMILES) | EC50 [1] [µM] | EC50 [2] [nM] | EC50 [3] [nM] | inhibition at 10 µM (IL-6) [%] | EC50 (IL-6) [µM] | EC50 [4] [nM] | EC50 [5] [nM] | EC50 (recombinant GSK3β kinase) [nM] | inhibition at 10 µM [1] [%] | inhibition at 10 µM ([2]; SW480, read-out: percent inhibition at 10 μM) [%] | inhibition at 10 µM [4] [%] |
| --- | --- | --- | --- | --- | --- | --- | --- | --- | --- | --- | --- |
| [2H]C([2H])([2H])n1cc(-c2cc(F)c3cnc(NC(=O)CN4CCCCC4)cc3c2)cn1 [Compound 1016, N-(8-Fluoro-6-(1-(methyl-d3)-1H-pyrazol-4-yl)isoquinolin-3-yl)-2-(piperidin-1-yl)acetamide] | 6.14 | 4060 | 29.1 | 5.4 | > 10 | 2130 | 631 | 87 |  |  |  |
| C[C@@H]1CCCN1CC(=O)Nc1cc2cc(-c3cnco3)ccc2cn1 [Compound 982, (R)-2-(2-Methylpyrrolidin-1-yl)-N-(6-(oxazol-5-yl)isoquinolin-3-yl) acetamide] | 1.21 | 2710 | 19.2 |  | 2.79 | 767 | 1100 | 265 |  |  |  |
| CC(C)CN1CCC(F)(C(=O)Nc2cc3cc(-n4ccnn4)ccc3cn2)CC1 [Compound 1074, N-(6-(1H-1,2,3-triazol-1-yl)isoquinolin-3-yl)-4-fluoro-1-isobutylpiperidine-4-carboxamide] | > 10 | > 10000 | 6.9 | 5.6 | > 10 | > 10000 | 1300 | 278 | 25 | 19.7 |  |
| C[C@H]1CN(C)CCN1CC(=O)Nc1cc2cc(-c3cnn(C)c3)ccc2cn1 [Compound 355, (S)-2-(2,4-Dimethylpiperazin-1-yl)-N-(6-(1-methyl-1H-pyrazol-4-yl)isoquinolin-3-yl)acetamide] | 8.63 | 3510 | 6.4 |  | 9.13 | 6190 | 1700 | 228 |  |  |  |
| CC(C)CN1CCC[C@@H](C(=O)Nc2cc3cc(-c4cnn(C)c4)ccc3cn2)C1 [Compound 113, (R)-1-Isobutyl-N-(6-(1-methyl-1H-pyrazol-4-yl)isoquinolin-3-yl)piperidine-3-carboxamide] | > 10 | > 10000 | 24.1 |  | 1.92 | 2110 | 3800 | 586 |  |  |  |
| Cn1cc(-c2ccc3cnc(NC(=O)[C@@H]4CCCCN4)cc3c2)cn1 [Compound 340, (S)—N-(6-(1-Methyl-1H-pyrazol-4-yl)isoquinolin-3-yl)piperidine-2-carboxamide] | 2.23 | 932 | 1.9 |  | 0.562 | 413 | 2300 | 257 |  |  |  |
| O=C(CN1CCCC1)Nc1cc2cc(-c3cnn(C4CC4)c3)ccc2cn1 [Compound 286, N-(6-(1-Cyclopropyl-1H-pyrazol-4-yl)isoquinolin-3-yl)-2-(pyrrolidin-1-yl) acetamide] | 3.29 | 3140 | 64.9 |  | 1.23 | > 10000 | 1150 | 186 |  |  | 16.4 |
| O=C(Nc1cc2cc(-c3cnn4c3CNCC4)ccc2cn1)C1CCN(CC2(C(F)(F)F)CC2)CC1 [Compound 997, N-(6-(4,5,6,7-Tetrahydropyrazolo[1,5-a]pyrazin-3-yl)isoquinolin-3-yl)-1-((1-(trifluoromethyl)cyclopropyl)methyl)piperidine-4-carboxamide] | 5.06 | 3890 | 186 | 28.6 | > 10 | 567 | 1300 | 33 |  |  |  |
| C[C@H]1COCCN1CC(=O)Nc1cc2cc(-c3cnn(C)c3)ccc2cn1 [Compound 341, (S)—N-(6-(1-Methyl-1H-pyrazol-4-yl)isoquinolin-3-yl)-2-(3-methylmorpholino)acetamide] | > 10 | 4100 | 5.6 | 46.1 | > 10 | 2370 | 1600 | 89 | 33.9 |  |  |
| Cn1cc(-c2ccc3cnc(NC(=O)C4CCOCC4)cc3c2)cn1 [Compound 114, N-(6-(1-Methyl-1H-pyrazol-4-yl)isoquinolin-3-yl)tetrahydro-2H-pyran-4-carboxamide] | 3.89 | 835 | 1.9 |  | 1.14 | 735 | 286 | 32 |  |  |  |
| CN1CCCN(CC(=O)Nc2cc3cc(-c4cnn(C)c4)ccc3cn2)CC1 [Compound 1012, 2-(4-Methyl-1,4-diazepan-1-yl)-N-(6-(1-methyl-1H-pyrazol-4-yl)isoquinolin-3-yl)acetamide] | 3.2 | 2720 | 13 |  | 3.12 | > 10000 | 555 | 155 |  |  | 10.2 |
| Cc1nnc(-c2ccc3cnc(NC(=O)CN4CCN(C)CC4)cc3c2)s1 [Compound 946, N-(6-(5-Methyl-1,3,4-thiadiazol-2-yl)isoquinolin-3-yl)-2-(4-methylpiperazin-1-yl)acetamide] | > 10 | 1880 | 23 | 18.2 | > 10 | 970 | 571 | 38 | 42.6 |  |  |
| Cc1nnc(-c2ccc3cnc(NC(=O)C4CCN(CCF)CC4)cc3c2)s1 [Compound 900, 1-(2-Fluoroethyl)-N-(6-(5-methyl-1,3,4-thiadiazol-2-yl)isoquinolin-3-yl) piperidine-4-carboxamide] | 3.88 | 1010 | 2.9 |  | 9.86 | 449 | 180 | 11 |  |  |  |
| Cn1cc(-c2ccc3cnc(NC(=O)CN4C[C@@H]5C[C@H]4CO5)cc3c2)cn1 [Compound 345, 2-((1S,4S)-2-Oxa-5-azabicyclo[2.2.1]heptan-5-yl)-N-(6-(1-methyl-1H-pyrazol-4-yl)isoquinolin-3-yl)acetamide] | 3.08 | 2120 | 4 |  | 4.17 | > 10000 | 774 | 26 |  |  | 38 |
| O=C(Nc1cc2cc(-c3cnn4c3CN(CCF)CC4)ccc2cn1)C1CCN(CC2(C(F)(F)F)CC2)CC1 [Compound 998, N-(6-(5-(2-Fluoroethyl)-4,5,6,7-tetrahydropyrazolo[1,5-a]pyrazin-3-yl)isoquinolin-3-yl)-1-((1-(trifluoromethyl)cyclopropyl)methyl)piperidine-4-carboxamide] | 4.75 | 2250 | 6.2 |  | 7.08 | 260 | 638 | 102 |  |  |  |
| CN1CCN(CC(=O)Nc2cc3cc(-c4cncs4)ccc3cn2)CC1 [Compound 767, 2-(4-Methylpiperazin-1-yl)-N-(6-(thiazol-5-yl)isoquinolin-3-yl)acetamide] | 9.05 | 3220 | 4.3 |  | 3.82 | > 10000 | 1000 | 157 |  |  | 33.2 |
| O=C(CN1CCOCC1)Nc1cc2cc(-c3cncs3)ccc2cn1 [Compound 773, 2-Morpholino-N-(6-(thiazol-5-yl)isoquinolin-3-yl)acetamide] | > 10 | 6550 | 3.8 |  | 3.48 | > 10000 | 2200 | 219 | 48.4 |  | 30.3 |
| CN1CCC(F)(C(=O)Nc2cc3cc(-c4cnn(C)c4)ccc3cn2)CC1 [Compound 92, 4-Fluoro-1-methyl-N-(6-(1-methyl-1H-pyrazol-4-yl)isoquinolin-3-yl) piperidine-4-carboxamide] | 0.983 | 1600 | 6.5 | 33 | > 10 | > 10000 | 3900 | 361 |  |  | 16.7 |
| Cn1cc(-c2ccc3cnc(NC(=O)C4CC5(C4)CN(C(=O)C(F)(F)F)C5)cc3c2)cn1 [Compound 325, N-(6-(1-Methyl-1H-pyrazol-4-yl)isoquinolin-3-yl)-2-(2,2,2-trifluoroacetyl)-2-azaspiro[3.3]heptane-6-carboxamide] | 0.526 | 552 | 2.1 |  | 0.357 | 1300 | 440 | 3 |  |  |  |
| CC(C)N1CCN(CC(=O)Nc2cc3cc(-c4cnn(C)c4)ccc3cn2)CC1 [Compound 352, 2-(4-Isopropylpiperazin-1-yl)-N-(6-(1-methyl-1H-pyrazol-4-yl)isoquinolin-3-yl)acetamide] | 8.6 | 2960 | 21.5 |  | 5.03 | 1320 | 1300 | 110 |  |  |  |
